The record followed here is patent publication US8119112B2, “Ophthalmic compositions with an amphoteric surfactant and hyaluronic acid” (Bausch & Lomb Incorporated, priority 2008, dated 2012).

This series can be described thus: Precipitate formation of polyquaternium-1 with hyaluronic acid. It counts as physicochemical. The source says: One of the more common quaternary ammonium compounds is α-[4-tris(2-hydroxyethyl)-ammonium chloride-2-butenyl]poly[1-dimethyl ammonium chloride-2-butenyl]-ω-tris(2-hydroxyethyl) ammonium chloride, also referred to in the art as polyquaternium-1. Quaternary ammonium compounds are generally referred to in the art as “polyquaternium” disinfectants, and are identified by a particular number following the designation such as polyquaternium-1, polyquaternium-10 or polyquaternium-42. Polyquaternium-1 is present in the ophthalmic compositions from 0.5 ppm to 3 ppm. […] The precipitate is believed to be the complexation product of hyaluronic acid and polyquaternium-1.

Regarding “α-[4-tris(2-hydroxyethyl)-ammonium chloride-2-butenyl]poly[1-dimethyl ammonium chloride-2-butenyl]-ω-tris(2-hydroxyethyl) ammonium chloride [polyquaternium-1]”, the “concentration of polyquaternium-1 in the compositions that results in formation of a precipitate” value was above 3 ppm.
